Test results: patent publication US20110250184A1, “METHODS FOR DETERMINING EFFICACY OF A THERAPEUTIC REGIMEN AGAINST DELETERIOUS EFFECTS OF CYTOTOXIC AGENTS IN HUMAN” (priority 2008, published 2011)
Entries after “also recorded” stand apart in the source; their conditions may differ.

Columns and labels:
[1] = Free radical scavenger / antioxidant activity
[2] = test system: p53, p21, bax, c-abl and p73; assay: Protein levels in cells in response to radiation exposure; assay type: cell-based
Text: This reduction could be instrumental in decreased cell death and increased cell recovery in ON 01210.Na pretreated irradiated cells.

[3] = test system: human skin fibroblasts; assay: In vitro clonogenic survival assay, skin fibroblasts; assay type: cell-based
[4] = test system: bone marrow of irradiated mice; assay: In vivo radiation protection assay, bone marrow colony forming units of irradiated mice; parameters: species or system C3H/HEJ mice; conditions: for Differential colony counts, GM / Differential colony counts, Granulocytes / Differential colony counts, Macrophages / Differential colony counts, Total CFU: 500 mg/kg sc -24 h and -15 min
Description: (§1) FIG. 4. ON 01210.Na protects the bone marrow of irradiated mice. A. Mice were injected with 500 mg/kg of ON 01210.Na formulated in 1% Polysorbate 80/K-phosphate buffer or vehicle alone by sc injections minus 24 hrs and minus 15 minutes before 5.5 Gy of whole body ionizing radiation treatment. Whole blood was collected on the indicted days and WBC counts were performed following RBC lysis. The data is plotted as the average of three mice per group +/−SEM (N:3×3=9 plates). B. Pictures of representative plates. […] C. White blood cell counts. Whole blood was collected on the indicted days and WBC counts were performed following RBC lysis. The data is plotted as the average of 3 mice per group±SEM (N=3).
Since survival of animals after radiation exposure depends largely on the protection of the hematopoietic system, the effect of ON 01210.Na treatment on hematopoietic cell survival was investigated using various schedules before radiation exposure. The radioprotection of hematopoietic cells by ON 01210.Na was studied in an in vivo assay using a sub lethal dose of radiation. C3H/HEJ mice were treated with ON 01210.Na following various schedules in order to determine the optimal dose and schedule of ON 01210.Na for maximum protection of the hematopoietic system in mice.
as §1, with “A.” for “FIG. 4. ON 01210.Na protects the bone marrow of irradiated mice. A.”, “group+/−SEM” for “group +/−SEM”, “(N=3). Lineage specific protection was studied by identifying and tabulating three lineages, granulocytes, macrophages and granulocyte-macrophages (GM).” for “(N=3).”
In order to determine the optimal schedule of ON 01210.Na treatment for maximum protection of the bone marrow, bone marrow protection of mice injected with a single dose of ON 01210.Na at minus 15 minutes or minus 4 hours was compared with mice injected with two doses described above. The most efficient protection of the bone marrow was found when the mice were injected at minus 24 hours and minus 15 minutes before radiation exposure. […] These experiments imply that a single injection just before exposure will protect and increase the recovery of bone marrow cells after radiation exposure.

[5] = molecular target: CYP450 2C9 (Homo sapiens, UniProt P11712); assay type: in vitro ADME
CYP450 2C9, sequence (P11712 whole entry): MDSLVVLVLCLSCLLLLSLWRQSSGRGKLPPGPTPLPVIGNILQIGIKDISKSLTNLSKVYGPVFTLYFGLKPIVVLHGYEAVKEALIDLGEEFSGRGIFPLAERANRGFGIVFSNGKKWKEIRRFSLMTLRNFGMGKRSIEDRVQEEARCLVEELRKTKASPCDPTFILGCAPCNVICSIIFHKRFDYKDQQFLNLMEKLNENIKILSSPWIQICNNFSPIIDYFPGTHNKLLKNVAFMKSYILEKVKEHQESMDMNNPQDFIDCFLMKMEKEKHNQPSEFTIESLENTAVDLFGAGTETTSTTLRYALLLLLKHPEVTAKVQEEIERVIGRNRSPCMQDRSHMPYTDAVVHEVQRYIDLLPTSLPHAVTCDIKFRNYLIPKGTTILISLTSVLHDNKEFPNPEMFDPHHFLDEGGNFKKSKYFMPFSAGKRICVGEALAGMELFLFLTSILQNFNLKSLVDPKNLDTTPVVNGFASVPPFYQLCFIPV
Description: (§2) Additional biochemical studies were performed to screen for potential secondary or non-specific activities. ON 01210.Na was subjected to in vitro primary screening across a broad panel of 67 radioligand receptor binding assays and five cytochrome P450 enzymes: 1A2, 2C9, 2C19, 3A4, and 2D6. […] Only one cytochrome assay, CYP450 2C9, in which the activity was […] 98%, yielded a response that was considered significant. Thus, as a preliminary screen for safety and selectivity profiling, no targets were identified.

[6] = test system: cells; assay type: cell-based
[7] = test system: white blood cells; assay: White blood cell counts of irradiated mice; assay type: in vivo, C3H/HEJ mice
Description: as §1
A. Mice were injected with 500 mg/kg of ON 01210.Na formulated in 1% Polysorbate 80/K-phosphate buffer or vehicle alone by sc injections minus 24 hrs and minus 15 minutes before 5.5 Gy of whole body ionizing radiation treatment. Whole blood was collected on the indicted days and WBC counts were performed following RBC lysis. The data is plotted as the average of three mice per group+/−SEM (N:3×3=9 plates). […]
In addition to examining the ability of ON 01210.Na to protect bone marrow cells, the protection of peripheral white blood cells was also examined. Whole blood was collected and the total number of white blood cells was determined at various times after radiation exposure.

[8] = test system: 67 radioligand receptor binding assays; assay: Panel of 67 radioligand receptor binding assays; conditions: in vitro primary screening
Description: as §2

With `O=C([O-])c1ccc(/C=C/S(=O)(=O)Cc2ccc(Cl)cc2)cc1.[Na+]` [ON 01210.Na, E-4-Carboxystyryl-4-chlorobenzylsulfone sodium salt] the “activity as a free radical scavenger or antioxidant” value [1] was “did not exhibit any significant activity”, the “protein level of bax” value [2] was “significantly reduce” and the “protein level of c-abl” value [2] was “significantly reduce”. For the same compound, the “protein level of p21” value [2] was “significantly reduce”, the “protein level of p53” value [2] was “significantly reduce” and the “protein level of p73” value [2] was “significantly reduce”. The “protection from radiation exposure (clonogenic survival)” value [3] was “protected”, the “Differential colony counts, GM” value ([4]; 5.5 Gy IR, day 4) was 8 and the “Differential colony counts, Granulocytes” value ([4]; 5.5 Gy IR, day 4) was 9. The “Differential colony counts, Macrophages” value ([4]; 5.5 Gy IR, day 4) was 4, the “Differential colony counts, Total CFU” value ([4]; 5.5 Gy IR, day 4) was 21 and the “Differential colony counts, GM” value ([4]; 5.5 Gy IR, day 7) was 9. The “Differential colony counts, Granulocytes” value ([4]; 5.5 Gy IR, day 7) was 13, the “Differential colony counts, Macrophages” value ([4]; 5.5 Gy IR, day 7) was 2 and the “Differential colony counts, Total CFU” value ([4]; 5.5 Gy IR, day 7) was 24. For the same compound, the “Differential colony counts, GM” value ([4]; 5.5 Gy IR, day 12) was 16, the “Differential colony counts, Granulocytes” value ([4]; 5.5 Gy IR, day 12) was 16 and the “Differential colony counts, Macrophages” value ([4]; 5.5 Gy IR, day 12) was 5. The “Differential colony counts, Total CFU” value ([4]; 5.5 Gy IR, day 12) was 37, the “Differential colony counts, GM” value ([4]; 5.5 Gy IR, day 18) was 72 and the “Differential colony counts, Granulocytes” value ([4]; 5.5 Gy IR, day 18) was 58. The “Differential colony counts, Macrophages” value ([4]; 5.5 Gy IR, day 18) was 16, the “Differential colony counts, Total CFU” value ([4]; 5.5 Gy IR, day 18) was 146 and the “Differential colony counts, GM” value ([4]; No IR, day 4) was 111. For the same compound, the “Differential colony counts, Granulocytes” value ([4]; No IR, day 4) was 27, the “Differential colony counts, Macrophages” value ([4]; No IR, day 4) was 9 and the “Differential colony counts, Total CFU” value ([4]; No IR, day 4) was 147. For the same compound, the “Differential colony counts, GM” value ([4]; No IR, day 7) was 120, the “Differential colony counts, Granulocytes” value ([4]; No IR, day 7) was 18 and the “Differential colony counts, Macrophages” value ([4]; No IR, day 7) was 5. The “Differential colony counts, Total CFU” value ([4]; No IR, day 7) was 143, the “Differential colony counts, GM” value ([4]; No IR, day 12) was 116 and the “Differential colony counts, Granulocytes” value ([4]; No IR, day 12) was 64. For the same compound, the “Differential colony counts, Macrophages” value ([4]; No IR, day 12) was 14, the “Differential colony counts, Total CFU” value ([4]; No IR, day 12) was 194 and the “Differential colony counts, GM” value ([4]; No IR, day 18) was 119. The “Differential colony counts, Granulocytes” value ([4]; No IR, day 18) was 39, the “Differential colony counts, Macrophages” value ([4]; No IR, day 18) was 39 and the “Differential colony counts, Total CFU” value ([4]; No IR, day 18) was 197. The “protection and recovery of the bone marrow” value ([4]; 500 mg/kg sc -24 h and -15 min before 5.5 Gy whole body IR, sodium salt) was “significantly increased the recovery of the bone marrow; also recorded: significantly protected”, the “Percent Colony Forming Units” value ([4]; administration -15 min relative to IR exposure, day 4) was 9% and the “Percent Colony Forming Units” value ([4]; administration -15 min relative to IR exposure, day 7) was 13%. For the same compound, the “Percent Colony Forming Units” value ([4]; administration -15 min relative to IR exposure, day 12) was 17%, the “Percent Colony Forming Units” value ([4]; administration -15 min relative to IR exposure, day 18) was 80% and the “Percent Colony Forming Units” value ([4]; administration -4 h relative to IR exposure, day 4) was 6%. For the same compound, the “Percent Colony Forming Units” value ([4]; administration -4 h relative to IR exposure, day 7) was 10%, the “Percent Colony Forming Units” value ([4]; administration -4 h relative to IR exposure, day 12) was 12% and the “Percent Colony Forming Units” value ([4]; administration -4 h relative to IR exposure, day 18) was 51%. The “Percent Colony Forming Units” value ([4]; administration -24 h and -15 min relative to IR exposure, day 4) was 14%, the “Percent Colony Forming Units” value ([4]; administration -24 h and -15 min relative to IR exposure, day 7) was 16% and the “Percent Colony Forming Units” value ([4]; administration -24 h and -15 min relative to IR exposure, day 12) was 25%. For the same compound, the “Percent Colony Forming Units” value ([4]; administration -24 h and -15 min relative to IR exposure, day 18) was 100%, the “macrophage colony number” value ([4]; mice injected without radiation exposure) was “slight increase” and the “recovery of bone marrow versus vehicle” value ([4]; single injection 4 hours prior to radiation exposure, sodium salt) was “did not show a significant advantage; also recorded: not significantly increased”. For the same compound, the “CYP450 2C9 activity, stimulation” value [5] was 98%, the cell cycle arrest [6] was “did not cause cell cycle arrest” and the cytotoxicity [6] was “not cytotoxic”. For the same compound, the “protection of white blood cells from radiation exposure” value ([7]; 500 mg/kg sc -24 h and -15 min before 5.5 Gy IR, sodium salt) was “significantly protected”, the “recovery of white cell numbers” value ([7]; by 18 days) was “more rapid recovery” and the “inhibition or stimulation of receptor binding” value [8] was “No significant inhibition or stimulation”.
